Measured values reported in the supplement of paper PMC11061612.

Key:
Assay in all cases: Bliss excess, mean over the matrix (fraction); higher = more synergy
[1] = tested on: CAL-51 (Breast Carcinoma)
In short: (§1)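 Cell lines grown in DMEM/F12 or RPMI with 10% FBS were plated in 1536-well plates and held 24 hours at 37°C, 5% CO2 before 72 hours of exposure to two-drug dose matrices, with DMSO typically at 0.2%. CellTiter-Glo 2.0 luminescence gave viability, which was converted to inhibition. Vehicle wells were set to 0 and blank wells to 1. Combination Emax is the second-highest inhibition in the matrix, and Bliss excess is the observed combination effect minus the expected EA + EB − EA·EB, where EA and EB are the single-agent effects.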

[2] = tested on: NCI-H747 (Colorectal Carcinoma)
In short: as §1

[3] = tested on: COLO-829 (Melanoma)
In short: as §1

[4] = tested on: LB771-HNC (Head and Neck Carcinoma)
In short: as §1

[5] = tested on: KARPAS-231 (B-Cell Non-Hodgkin's Lymphoma)
In short: as §1

[6] = tested on: SW626 (Colorectal Carcinoma)
In short: as §1

[7] = tested on: OVCAR-8 (Ovarian Carcinoma)
In short: as §1

SMILES: CN(CCO)CC[C@H](CSc1ccccc1)Nc1ccc(S(=O)(=O)NC(=O)c2ccc(N3CCC([C@@H](O)c4ccccc4-c4ccc(Cl)cc4)CC3)cc2)cc1S(=O)(=O)C(F)(F)F [AZD4320] + C[C@@H](Nc1cc(F)cc(F)c1)c1cc(C(=O)N(C)C)cc2c(=O)cc(N3CCOCC3)oc12 [AZD8186] (first compound max 1 µM, 7x7, partner max 3 µM)
- Bliss excess [1]: 0.0283
- Bliss excess [2]: -0.0282
- Bliss excess [3]: 0.0015
- Bliss excess [4]: 0.0095
- Bliss excess [5]: 0.0269
- Bliss excess [6]: -0.0203
- Bliss excess [7]: 0.0245
